This note sets out measurements from patent US8741932B2, “Imidazopyridine derivatives” (Piramal Enterprises Limited, priority 2009, dated 2014).

The test system of one test is H460. Nature of the test: Cytotoxicity assay (propidium iodide), H460. The format is cell-based. As to conditions: Homo sapiens, NCI-H460; H460 (C1b, lung); 48 hours.
A further test has as its system A2780. Nature of the test: Cytotoxicity assay (propidium iodide), A2780. The format is cell-based. The settings on record: Homo sapiens; A2780 (C3a, ovarian); 48 hours.
A further test has as its system HCT116. Kind of test: Cytotoxicity assay (propidium iodide), HCT116. The format is cell-based. As to conditions: Homo sapiens, HCT-116; HCT116 (C4b, colon); 48 hours.
The test system of test [1] is IL-6. Nature of the test: Human monocyte assay, LPS-stimulated IL-6. The format is cell-based. The settings on record: Monocyte; human monocytes, 1 μg/ml LPS, 5 hours. The procedure, abridged: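 Adherent human PBMC-derived monocytes (2×10^4/well) were cultured 48 h, preincubated 30 min with compound or 0.5% DMSO, then stimulated with 1 μg/ml E. coli LPS for 5 h at 37° C. TNF-α and IL-6 in supernatants were measured by ELISA.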

A further test has as its system OVCAR 3. Nature of the test: Cytotoxicity assay (propidium iodide), OVCAR 3. The format is cell-based. As to conditions: Homo sapiens; OVCAR 3 (C3c, ovarian); 48 hours.
In another test the test system is A549. Kind of test: Cytotoxicity assay (propidium iodide), A549. Format: cell-based. As to conditions: Homo sapiens; A549 (C1a, lung); 48 hours.
In the next test the test system is PC3. Kind of test: Cytotoxicity assay (propidium iodide), PC3. As to conditions: Homo sapiens, PC-3, 48 h, read-out: IC50 cytotoxicity.
The subject of the next test is STAT3. Nature of the test: STAT3 bioassay (Hela Stat3-luc, luciferase). As to conditions: Homo sapiens, Oncostatin M induction. Format: cell-based. As to the method:
Cells were seeded (Hela Stat3-luc, ATCC P/N 30-2002) in a white 96 well plate (Nunc cat.no.136101) at a density of 20,000cells/well in 179 μl volume per well (DMEM from Sigma containing 10% FCS). The plate was incubated for 24 hours at 37° C./5% CO2. The cells (wells in triplicates) were then treated with 1 μl/well of 200× stock of the desired compound concentration prepared in 100% DMSO. Curcumin was used as a standard or positive control, added 10 μg/ml in triplicate. DMSO was used as medium control (1 μl/well added in triplicates). The plate was incubated at 37° C./5% CO2 for 1 hour. 20 μl/well Oncostatin M (Oncostatin M, Human, Recombinant, E. coli, Cat.No. 496260, 10 μg from Calbiochem) was added to treated wells, induction control (in triplicate) (1000 ng/ml stock prepared in serum free medium to get final concentration 100 ng/ml). The plate was then incubated for 7-8 hours at 37° C./5% CO2 for induction. A typical assay would consist of triplicate of medium control, triplicate of induction control, triplicate of positive/standard control and test compounds at desired concentration in triplicates. For termination Luciferase assay protocol was followed where the culture medium was removed from all the wells.
200 μl well of PBS was added to remove traces of medium and compound. The PBS was discarded. 40 μl/well of 1× lysis buffer was added to all the wells. The plate was incubated at RT for 20 minutes with intermittent shaking. 100 μl/well of LAB reagent was added to all the wells in dark. {LAB reagent for 1 plate=8 ml Luciferase assay buffer (LAB)+1 ml Coenzyme A (Sigma cat no. C3019) (2.1 mg/ml stock in LAB)+530 μL of ATP (Sigma cat.no.A2383) (5.85 mg/ml stock in LAB)+1 ml luciferin reagent (Promega cat no.245355) (2 mg/ml stock in LAB, protect from light)}.
The luminescence was immediately read on polar star. The values were expressed as percentage inhibition, in terms of treated values to that STAT3 (induction control). IC50 values were calculated from graphs using these percentages.

In test [2] the test system is TNF-α. Nature of the test: Human monocyte assay, LPS-stimulated TNF-α. Format: cell-based. The settings on record: human monocytes, 1 μg/ml LPS, 5 hours. Here is the method:
The assay was designed as in the reference, Physiol.
Peripheral blood mononuclear cells (hPBMC) were harvested from human blood and suspended in RPMI 1640 culture medium containing 10% FCS, 100 U/mL penicillin and […] streptomycin (assay medium). Monocytes in the hPBMCs were counted using a Coulter Counter following which the cells were resuspended at 2×10^5 monocytes/mL. A cell suspension containing 2×10^4 monocytes was aliquoted per well of a 96-well plate. Subsequently, the hPBMCs were incubated for 4-5 hours at 37° C., 5% CO2 (During the incubation, the monocytes adhered to the bottom of 96-well plastic culture plate). Following the incubation, the non-adherent lymphocytes were washed with assay medium and the adherent monocytes re-fed with assay medium. After a 48-hour incubation period (37° C., 5% CO2), monocytes were pretreated with various concentrations of representative compounds of present invention (refer to table 6 and 7) (prepared in DMSO) or vehicle (0.5% DMSO) for 30 minutes and stimulated with 1 μg/ml LPS (Escherchia coli 0111:B4, Sigma Chemical Co., St. Louis, Mo.). The incubation was continued for 5 hours at 37° C., 5% CO2. Supernatants were harvested, assayed for IL-6 and TNF-α by ELISA as described by the manufacturer (BD Biosciences, USA). Dexamethasone (10 μM) was used as standard for this assay. […] Biological results for both IL-6 and TNFα are indicated in Table 6 and Table 7 respectively.

In test [3] the test system is TNF-α. Kind of test: Synovial tissue assay, TNF-α. The format is cell-based. As to conditions: Homo sapiens; synovial tissue cells from rheumatoid arthritis patients, 16 hours. Here is the method: (§1) The assay was designed as in the reference, Lancet, 2(8657), 244-7, Jul.
(§2) Stock Solution: Compounds of the present invention were dissolved in DMSO to obtain a stock solution of 20 mM.
(§3) Synovial tissue was obtained from rheumatoid arthritis patients undergoing knee replacement surgery. The tissue was minced into small pieces and digested in RPMI medium containing 100 U/ml penicillin-G, 100 μg/ml streptomycin, 50 ng/ml amphotericin B (GIBCO; USA), 1.33 mg/ml collagenase Type I (Worthington Biochemical Corporation, New Jersey), 0.5 μg/ml DNAse Type I (Sigma Aldrich; St. Louis, Mo.) and 8.33 U/ml heparin (Biological E. Limited, India) for 3 hours at 37° C., 5% CO2. The digested tissue was filtered through a membrane (mesh size 70 micron; Sigma Aldrich). Subsequently, the cells were washed 3 times and resuspended in complete medium (RPMI supplemented with 5% FBS and 5% human serum-AB+) at a concentration of 1×10^6 cells/ml. All cell washes in this assay were performed using Rosewall Park Memorial Institute (RPMI)-1640 medium (JRH; Australia). For the experiment, 100 μl of cell suspension was added to the wells of a 96-well culture plate. Following cell plating, 100 μl of the culture medium and 1 μl of various concentrations (0.01, 0.03, 0.1, 0.3, 1, 3, 10, 30 and 100 μM) of the compounds of present invention dissolved in DMSO were added to the cells. The final concentration of DMSO was adjusted to 0.5%. For experimental purposes, 1 μl of […] concentrated solution of the compounds of present invention were dissolved in 200 μl cell suspension to achieve a final concentration of 0.01, 0.03, 0.1, 0.3, 1, 3, 10, 30 and 100 μM. The vehicle (0.5% DMSO) was used as control. 10 μM dexamethasone (Sigma Aldrich) or 1 μM 7-hydroxyfluorinide (7HF) were used as standards for the experiments. The plates were incubated for 16 hours at 37° C., 5% CO2. Subsequently, the supernatants were harvested and stored at −70° C. The amounts of TNF-α, IL-6 and interleukin-8 (IL-8) in the supernatants were assayed using OptiEIA ELISA sets, (BD BioSciences Pharmingen). The protocol followed was as per manufacturers instructions. […] The cytotoxicity of test compounds in synovial cells was assessed by MTS assay. Absorbance was measured at 490 nm. Percent cytotoxicity was calculated by the equation: % Cytotoxicity=(A−B)/A×100 where, A is the absorbance of cells treated with DMSO alone and B is the absorbance of cells treated with the test article.

For the next test, the system named is IL-8. Nature of the test: Synovial tissue assay, IL-8. Format: cell-based. The settings on record: Homo sapiens; synovial tissue cells from rheumatoid arthritis patients, 16 hours. As to the method: as §1, §2, §3
Test [4] relates to IL-6. Kind of test: Synovial tissue assay, IL-6. The format is cell-based. As to conditions: Homo sapiens; synovial tissue cells from rheumatoid arthritis patients, 16 hours. Here is the method: as §1, §2, §3

Protocol for A2780: (§4) Cells from cell lines as mentioned in the table given below were seeded at a density of 3000 cells/well in a white opaque 96-well plate. Following incubation at 37° C./5% CO2 for a period of 18-24 hours, the cells were treated with various concentrations (stock solution was prepared in DMSO and subsequent dilutions were made in media as per ATCC guidelines) of the representative compounds of present invention (refer table 3) for a period of 48 hours. At the end of treatment, the spent culture medium was discarded, the cells were washed with 1×PBS and 200 μl of 7 μg/ml propidium iodide was added to each well. The plates were frozen at −70° C. for at least 24 hours. For analysis, the plates were brought to RT, allowed to thaw and were read in PolarStar fluorimeter with the fluorescence setting. The percentage of viable cells in the non treated set of wells was considered to be 100 and the percentage viability following treatment was calculated accordingly. IC50 values were calculated from graphs plotted using these percentages.
Protocol for A549: as §4
Protocol for HCT116: as §4
Protocol for PC3: as §4

By IC50 is commonly meant the concentration that gives 50% inhibition. Consider `Cc1ccc(S(=O)(=O)N(C)N=Cc2cnc3ccc(-c4cccnc4)cn23)cc1` [Example 3, N, 4-dimethyl-N′-((6-(pyridine-3-yl)imidazo[1,2-a]pyridine-3-yl)methylene) benzenesulfonohydrazide], for which the IC50 is 10 to 5000 nM in the test on H460; 10 to 5000 nM in the test on A2780; 10 to 5000 nM in the test on HCT116; not below 5 µM in the test with IL-6 [1]; 10 to 5000 nM in the test on OVCAR 3; 10 to 5000 nM in the test on A549. Also, the concentration for half-maximal inhibition (IC50) in the test with PC3 is 10 to 5000 nM.
In the case of `CN(N=Cc1cnc2ccc(-c3cccnc3)cn12)S(=O)(=O)c1ccccc1F` [Example 4, 2-Fluoro-N-methyl-N′-((6-(pyridine-3-yl)imidazo[1,2-a]pyridine-3-yl)methylene)benzenesulfonohydrazide], the concentration for half-maximal inhibition (IC50) in the test with STAT3 fell in the range of 0.1 to 5 µM; in the test with TNF-α [2] it was 1 to 1000 nM; with IL-6 [1] it was 0.001 to 5 µM; with TNF-α [3], 0.01 to 0.3 µM; in the test on IL-8, 0.3 to 3 µM; in the test on IL-6 [4], 0.01 to 0.3 µM.
As to `CN(/N=C/c1cnc2ccc(-c3cccnc3)cn12)S(=O)(=O)c1cccc(C#N)c1` [Example 10, (E)-3-cyano-N-methyl-N′-((6-(pyridin-3-yl)imidazo[1,2-a]pyridin-3-yl)methylene)benzenesulfonohydrazide], the IC50 was in the range of 10 to 5000 nM in the test on H460; 10 to 5000 nM with A2780; 0.1 to 5 µM in the test with STAT3; 1 to 1000 nM in the test on TNF-α [2]; 10 to 5000 nM in the test with HCT116; 0.001 to 5 µM in the test with IL-6 [1]. Moreover, the IC50 with OVCAR 3, with A549 and in the test with PC3 was 10 to 5000 nM in each case.
On to `CN(N=Cc1cnc2ccc(-c3cccnc3)cn12)S(=O)(=O)c1ccc(F)cc1F` [Example 13, 2,4-Difluoro-N-methyl-N′-((6-(pyridine-3-yl)imidazo[1,2-a]pyridine-3-yl)methylene) benzenesulfonohydrazide], for which the half-inhibitory concentration (IC50) fell in the range of 5 to 10 µM in the test on STAT3; 1 to 1000 nM in the test with TNF-α [2]; 0.001 to 5 µM in the test on IL-6 [1]; 0.01 to 0.3 µM with TNF-α [3]; 0.3 to 3 µM with IL-8; 0.01 to 0.3 µM in the test on IL-6 [4].
`Cc1ccc(F)c(S(=O)(=O)N(C)N=Cc2cnc3ccc(-c4cccnc4)cn23)c1` [Example 19, 2-Fluoro-N, 5-dimethyl-N′-((6-(pyridine-3-yl)imidazo[1,2-a]pyridine-3-yl)methylene) benzenesulfonohydrazide]: the IC50 with TNF-α [2] fell in the range of 1 to 1000 nM; in the test with IL-6 [1], 0.001 to 5 µM; with TNF-α [3], 0.3 to 3 µM; in the test with IL-8, 0.3 to 3 µM; in the test on IL-6 [4], 0.3 to 3 µM.
`CN(N=Cc1cnc2ccc(-c3cccnc3)cn12)S(=O)(=O)c1cccs1` [Example 29, N-methyl-N′-((6-(pyridine-3-yl)imidazo[1,2-a]pyridine-3-yl)methylene) thiophene-2-sulfonohydrazide]: the IC50 in the test with H460, in the test with A2780, with HCT116, with OVCAR 3, in the test on A549 and with PC3 was 10 to 5000 nM each time.
With `Cc1ccc([N+](=O)[O-])cc1S(=O)(=O)N(C)N=Cc1cnc2ccc(-c3cnc4ccccc4c3)cn12` [Example 99, N, 2-Dimethyl-5-nitro-N′-((6-(quinolin-3-yl)imidazo[1,2-a]pyridine-3-yl)methylene)benzenesulfonohydrazide], the half-inhibitory concentration (IC50) was in the range of 10 to 5000 nM in the test on H460; 10 to 5000 nM in the test on A2780; 10 to 5000 nM in the test on HCT116; 0.001 to 5 µM with IL-6 [1]; 10 to 5000 nM with OVCAR 3; 10 to 5000 nM in the test with A549. Further, in the test with PC3, the 50% inhibitory concentration (IC50) was in the range of 10 to 5000 nM.
